PMC6920875, “Dithiocarbamate as a Valuable Scaffold for the Inhibition of Metallo-β-Lactmases” (Biomolecules, 2019)
Counter-ions that a name gives are not always drawn.

Experiments:
VIM-2 = target: T1, VIM-2 (Escherichia coli, UniProt Q5U7L7); type: biochemical; details: read-out: IC50 against VIM-2; substrate cefazolin 40 µM, 30 mM Tris pH 7.0, 25 °C, 5 min pre-incubation, inhibitor up to 200 μM
T1 construct: made in house; host or cells: E. coli BL21 (DE3), plasmid pET24a-VIM-2
Protocol: (§1) The dithiocarbamates, MβLs and substrates samples were prepared with 30 mM Tris, pH 7.0. […] Enzymes and inhibitors were pre-incubated for 5 min before adding substrate. […] The IC50 values were nonlinearly fitted by plotting the average percentage inhibition against inhibitor concentration. The inhibition modes of DC1 to ImiS, NDM-1 and L1 were assayed by generating Lineweaver–Burk plots, and Ki values were obtained by fitting initial velocity versus substrate concentration at each inhibitor concentration, using SigmaPlot 12.0 (Systat Software Inc., San Jose, CA, USA).
(§2) To evaluate the inhibitory activity of the dithiocarbamates, we over-expressed and purified MβLs NDM-1, VIM-2 and IMP-1 (B1), ImiS (B2), and L1 (B3) from three subclasses as previously reported. The inhibition experiments were performed with an Agilent UV8453 spectrometer. […] The concentrations of inhibitors were varied between 0 and 200 μM. The initial reaction rates were determined in the absence and presence of inhibitors in triplicate, and the generated average values were recorded.

ImiS = target: T2, ImiS (Aeromonas veronii, UniProt O31272); experiment: biochemical; design: species or system Aeromonas veronii bv. sobria; details: read-out: IC50 against ImiS; substrate imipenem 40 µM, 30 mM Tris pH 7.0, 25 °C, 5 min pre-incubation, inhibitor up to 200 μM
T2 construct: made in house; host or cells: E. coli BL21 (DE3), plasmid pET-26b-ImiS
T2 sequence (O31272 28-255 limits assumed): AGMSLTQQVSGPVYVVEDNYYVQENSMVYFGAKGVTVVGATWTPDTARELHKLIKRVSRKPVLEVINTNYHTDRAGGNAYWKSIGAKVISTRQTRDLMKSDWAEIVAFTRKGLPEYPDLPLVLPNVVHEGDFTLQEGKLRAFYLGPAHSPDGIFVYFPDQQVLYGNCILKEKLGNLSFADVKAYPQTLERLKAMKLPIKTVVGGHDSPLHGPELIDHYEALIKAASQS
Protocol: as §1, §2

IMP-1 = target: T3, IMP-1 (Serratia marcescens, UniProt P52699); experiment: biochemical; details: read-out: IC50 against IMP-1; substrate cefazolin 40 µM, 30 mM Tris pH 7.0, 25 °C, 5 min pre-incubation, inhibitor up to 200 μM
T3 construct: made in house; host or cells: E. coli BL21 (DE3), plasmid pET26b-IMP-1
T3 sequence (P52699 19-246 limits assumed): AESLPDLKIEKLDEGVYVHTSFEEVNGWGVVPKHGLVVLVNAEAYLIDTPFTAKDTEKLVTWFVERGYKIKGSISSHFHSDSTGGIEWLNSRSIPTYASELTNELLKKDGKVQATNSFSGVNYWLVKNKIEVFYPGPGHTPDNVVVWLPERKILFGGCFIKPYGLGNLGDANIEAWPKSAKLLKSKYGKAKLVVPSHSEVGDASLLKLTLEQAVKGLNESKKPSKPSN
Protocol: as §1, §2

NDM-1 [1] = target: T4, NDM-1 (Klebsiella pneumoniae, UniProt C7C422); experiment: biochemical; details: read-out: IC50 against NDM-1; substrate cefazolin 40 µM, 30 mM Tris pH 7.0, 25 °C, 5 min pre-incubation, inhibitor up to 200 μM
T4 construct: made in house; host or cells: E. coli BL21 (DE3), plasmid pET26b-NDM-1
T4 sequence (C7C422 29-270 limits assumed): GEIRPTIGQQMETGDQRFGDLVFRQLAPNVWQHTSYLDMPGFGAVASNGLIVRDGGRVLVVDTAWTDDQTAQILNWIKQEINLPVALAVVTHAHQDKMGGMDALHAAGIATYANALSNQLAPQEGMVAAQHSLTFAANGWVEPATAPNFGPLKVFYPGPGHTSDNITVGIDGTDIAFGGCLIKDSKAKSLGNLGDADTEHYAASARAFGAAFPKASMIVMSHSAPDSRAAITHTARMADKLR
Protocol: as §1, §2

L1 = target: T5, L1 (Stenotrophomonas maltophilia, UniProt P52700); experiment: biochemical; details: read-out: IC50 against L1; substrate cefazolin 40 µM, 30 mM Tris pH 7.0, 25 °C, 5 min pre-incubation, inhibitor up to 200 μM
T5 construct: made in house; host or cells: E. coli BL21 (DE3), plasmid pET-26b-L1
T5 sequence (P52700 34-290): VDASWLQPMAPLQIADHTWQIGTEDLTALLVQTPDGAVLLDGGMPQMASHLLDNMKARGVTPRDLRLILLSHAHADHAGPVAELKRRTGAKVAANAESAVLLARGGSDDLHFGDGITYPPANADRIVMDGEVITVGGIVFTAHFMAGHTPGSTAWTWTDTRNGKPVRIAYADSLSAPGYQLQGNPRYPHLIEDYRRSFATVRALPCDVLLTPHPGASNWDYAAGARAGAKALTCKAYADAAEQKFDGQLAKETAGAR
Protocol: as §1, §2

[2] = tested on: E. coli BL21 expressing L1; experiment: MIC determination, broth micro-dilution, cefazolin with inhibitor; type: cell-based; details: 64 μg/mL inhibitor
Protocol: (§3) The minimum inhibitory concentration (MIC) of antibiotics, both alone and in the presence of enzyme inhibitors, was determined using the broth micro-dilution method. Single colonies of E. coli BL21, containing plasmid, pET26b-NDM-1, pET26b-ImiS or pET26b-L1 in lysogeny broth agar plates, were transferred into 5 mL of Mueller–Hinton (MH) liquid medium. Strains grown in MH medium to OD600 = 0.45 were used as inocula, after an 84-fold dilution to 1 × 10^5 CFU/mL in MH medium. […] Compound DCs as inhibitors were dissolved in MH media, to prepare 1024, 512, 256, 128, 64 and 32 μg/mL stock solutions. The prepared solutions with different antibiotic concentrations (50 μL) were diluted to 100 μL, with different concentrations of inhibitor solution (50 μL), then 100 μL inoculum was added sequentially into the prepared solutions, to yield a quarter of the initial concentrations. The mixtures were incubated at 37 °C for 16 h. […] Each measurement was performed in duplicate.
(§4) The ability of the dithiocarbamate derivatives to inhibit MβLs, and to restore the antimicrobial activity of antibiotics, was investigated by determining the minimum inhibitory concentrations (MICs) of existing antibiotics in the presence and absence of DC1-10, as previously reported. E. coli BL21 (DE3) containing plasmids pET26b-NDM-1, pET26b-ImiS and pET26b-L1 were used to assess these inhibitors.

[3] = tested on: E. coli BL21 expressing NDM-1; experiment: as above; type: cell-based; details: E. coli BL21-NDM-1; 64 μg/mL inhibitor
Protocol: as §3, §4

[4] = tested on: E. coli BL21 expressing ImiS; experiment: MIC determination, broth micro-dilution, imipenem with inhibitor; type: cell-based; details: 64 μg/mL inhibitor
Protocol: as §3, §4

[5] = tested on: mouse fibroblast cells (L-929); experiment: Cytotoxicity assay (MTT); type: cell-based; details: concentration as high as 250 μM, 48 h
Protocol: The cytotoxicity assays were performed to evaluate the toxicity of DC1, DC3, DC7 and DC9 in mouse fibroblast cells (L-929). The cells were seeded into 96-well plates at a cell density of 1.0 × 10^4 cells/well, in 100 μL of culture medium and maintained for 24 h. Then, the inhibitors with working concentrations (15.6, 31.25, 62.5, 125, 250, and 500 μM) were added to the 96-well plates and incubated for another 48 h. Three wells containing only cells were suspended in a mixture solution of 98 μL complete medium, as controls for cell viability without inhibitors. Three wells containing only the complete medium were used as blank controls. Following that, the medium was removed, and 100 μL of fresh culture medium and 10 μL MTT were added to each well. After incubation for 4 h, the trays were then vigorously shaken to solubilize the formed product, and the absorbance, at a wavelength of 490 nm, was read on a microplate reader and analyzed. All experiments were conducted in triplicate, and the data are expressed as mean ± standard deviation.
The potential toxicity of dthiocarbamates DC1, DC3, DC7 and DC9 as representatives was assayed using the mouse fibroblast cells (L929) treated with different concentrations of inhibitors (15.625, 31.25, 62.5, 125, 250 and 500 μM).

NDM-1 [6] = target: T4, NDM-1; experiment: Time-dependence inhibition experiment, residual activity; type: biochemical; details: 13 nM NDM-1 incubated with inhibitor at its IC50 for 8 h
[7] = tested on: Cc1nnc(SCC2=C(C(=O)O)N3C(=O)[C@@H](NC(=O)Cn4cnnn4)[C@H]3SC2)s1; experiment: purified protein, by the assay type; details: other: test conditions: 30 mM Tris pH 7.0, 25 °C
[8] = tested on: C[C@@H](O)[C@H]1C(=O)N2C(C(=O)O)=C(SCCN=CN)C[C@H]12; experiment: purified protein, by the assay type; details: other: test conditions: 30 mM Tris pH 7.0, 25 °C

For `O=C(CCc1ccccc1)NNC(=S)[S][K]` (as salt: potassium) [DC9, Potassium 2-(3-phenylpropanoyl)hydrazine-1-carbodithioate], the melting point was 170 to 171 °C.
`O=C(Cc1ccccc1)NNC(=S)[S][K]` [DC2] showed an IC50 (VIM-2) of over 200 µM, an IC50 (ImiS) of 2.5 ± 0.1 µM and an IC50 (IMP-1) of 166 ± 2.7 µM. For the same molecule, the IC50 (NDM-1 [1]) was 5.64 ± 0.1 µM, the IC50 (L1) was 86.8 ± 1.6 µM and the melting point was 150 to 151 °C.
In the case of `O=C(NNC(=S)[S][K])c1ccc(O)cc1` [DC3], the IC50 (VIM-2) is reported as 82.8 ± 1.1 µM, the “fold reduction in MIC of cefazolin” value [2] is reported as “no inhibitory effects” and the “fold reduction in MIC of cefazolin” value [3] is reported as “no inhibitory effects”. It also gave an IC50 (ImiS) of over 200 µM, an IC50 (IMP-1) of over 200 µM and an IC50 (NDM-1 [1]) of 67.1 ± 0.9 µM. For the same molecule, the IC50 (L1) was over 200 µM, the “fold reduction in MIC of imipenem” value [4] was “no inhibitory effects” and the “survival rate of L929 mouse cells” value [5] was “higher than 80%”. For the same molecule, the melting point was 298 to 299 °C.
With `Nc1ccccc1C(=O)NNC(=S)[S][K]` [DC4] the IC50 (VIM-2) was 139 ± 2.05 µM, the IC50 (ImiS) was 1.08 ± 0.05 µM and the IC50 (IMP-1) was 103 ± 1.45 µM. The IC50 (NDM-1 [1]) was 11.4 ± 0.4 µM, the IC50 (L1) was 177 ± 2.8 µM and the melting point was 233 to 234 °C.
Work on `O=C(NNC(=S)[S][K])c1ccc(Cl)cc1` [DC5] yielded an IC50 (VIM-2) of over 200 µM, an IC50 (ImiS) of 129 ± 2.1 µM and an IC50 (IMP-1) of over 200 µM. It also gave an IC50 (NDM-1 [1]) of 91.3 ± 1.7 µM, an IC50 (L1) of over 200 µM and a melting point of over 300 °C.
`O=C(NNC(=S)[S][K])c1cccc(Br)c1` [DC6] showed an IC50 (VIM-2) of over 200 µM, an IC50 (ImiS) of 2.56 ± 0.05 µM and an IC50 (IMP-1) of over 200 µM. For the same molecule, the IC50 (NDM-1 [1]) was 15.2 ± 0.9 µM, the IC50 (L1) was 154 ± 3.2 µM and the melting point was over 300 °C.
`CC(C)(C)c1ccc(C(=O)NNC(=S)[S][K])cc1` [DC7] gave an IC50 (VIM-2) of 63.5 ± 1.3 µM, an IC50 (ImiS) of over 200 µM and an IC50 (IMP-1) of 96.4 ± 1.2 µM. For the same molecule, the IC50 (NDM-1 [1]) was 0.52 ± 0.01 µM, the IC50 (L1) was 191 ± 4 µM and the “survival rate of L929 mouse cells” value [5] was “higher than 80%”. It also gave a melting point of over 300 °C.
In the case of `O=C(NNC(=S)[S][K])c1ccccc1` [DC8], the IC50 (L1) is reported as 25.81 ± 0.12 µM and the “time dependence of NDM-1 inhibition (residual activity)” value (NDM-1 [6]) is reported as “no time-dependent inhibition”.
In the case of `O=C(CCc1ccccc1)NNC(=S)[S][K]` [DC9, Potassium 2-(3-phenylpropanoyl)hydrazine-1-carbodithioate], the IC50 (VIM-2) is reported as 115 ± 3.1 µM, the IC50 (ImiS) is reported as 156 ± 2.2 µM and the IC50 (IMP-1) is reported as 86.2 ± 0.9 µM. For the same molecule, the IC50 (NDM-1 [1]) was 62.7 ± 1.05 µM, the IC50 (L1) was over 200 µM and the “survival rate of L929 mouse cells” value [5] was “higher than 80%”.
With `O=C(NNC(=S)[S][K])C(O)c1ccccc1` (centres unmarked) [DC10, Potassium 2-(2-hydroxy-2-phenylacetyl)hydrazine-1-carbodithioate] the “time dependence of NDM-1 inhibition (residual activity)” value (NDM-1 [6]) was “no time-dependent inhibition”.
IMP-1 (Serratia marcescens) gave a Km [7] of 73 µM.
Work on ImiS (Aeromonas veronii) yielded a Km [8] of 52 µM.
In the case of L1 (Stenotrophomonas maltophilia), the Km [7] is reported as 60 µM.
NDM-1 (Klebsiella pneumoniae) showed a Km [7] of 15 µM.
Molecule VIM-2 (Escherichia coli) has a Km [7] of 97 µM.
